The kinase profiling compilation of Christmann-Franck et al. (2016)

What was measured:
Assay in all cases: radiometric filter-binding kinase assay
DYRK3 (human) = DYRK3 (human) (UniProt O43781); conditions: compound 100.0 µM; ATP 5 µM
NEK6 (human) = NEK6 (human) (UniProt Q9HC98); conditions: compound 100.0 µM; ATP 50 µM
TEK (human) = TEK (human) (UniProt Q02763); conditions: compound 100.0 µM; ATP 20 µM
PIM2 (human) = PIM2 (human) (UniProt Q9P1W9); conditions: compound 100.0 µM; ATP 5 µM
MKNK2 (human) = MKNK2 (human) (UniProt Q9HBH9); conditions: compound 100.0 µM; ATP 50 µM
EPHA4 (human) = EPHA4 (human) (UniProt P54764); conditions: compound 100.0 µM; ATP 50 µM
CDK2 CCNA2 (human) = CDK2 CCNA2 (human) (UniProt P20248+P24941); conditions: compound 100.0 µM; ATP 20 µM
STK33 (human) = STK33 (human) (UniProt Q9BYT3); conditions: compound 100.0 µM; ATP 50 µM
PTK6 (human) = PTK6 (human) (UniProt Q13882); conditions: compound 100.0 µM; ATP 20 µM
STK16 (human) = STK16 (human) (UniProt O75716); conditions: compound 100.0 µM; ATP 50 µM
PRKCA (human) = PRKCA (human) (UniProt P17252); conditions: compound 100.0 µM; ATP 20 µM
NEK2 (human) = NEK2 (human) (UniProt P51955); conditions: compound 100.0 µM; ATP 50 µM
CSNK2A1 (human) = CSNK2A1 (human) (UniProt P68400); conditions: compound 100.0 µM; ATP 5 µM
MYLK (human) = MYLK (human) (UniProt Q15746); conditions: compound 100.0 µM; ATP 50 µM
MAP3K11 (human) = MAP3K11 (human) (UniProt Q16584); conditions: compound 100.0 µM; ATP 20 µM
ABL1 (human) = ABL1 (human) (UniProt P00519); conditions: compound 100.0 µM; ATP 5 µM
MAPKAPK2 (human) = MAPKAPK2 (human) (UniProt P49137); conditions: compound 100.0 µM; ATP 20 µM
ROCK2 (rat) = conditions: compound 100.0 µM; ATP 20 µM; accession and sequence are those of the human protein
[1] = system: RPS6KB1 (human), P23443 [T412E]; conditions: compound 100.0 µM; ATP 20 µM
MST4 (human) = MST4 (human) (UniProt Q9P289); conditions: compound 100.0 µM; ATP 20 µM
PIM1 (human) = PIM1 (human) (UniProt P11309); conditions: compound 100.0 µM; ATP 20 µM
FLT1 (human) = FLT1 (human) (UniProt P17948); conditions: compound 100.0 µM; ATP 20 µM
MELK (human) = MELK (human) (UniProt Q14680); conditions: compound 100.0 µM; ATP 50 µM
PAK6 (human) = PAK6 (human) (UniProt Q9NQU5); conditions: compound 100.0 µM; ATP 20 µM
EPHB4 (human) = EPHB4 (human) (UniProt P54760); conditions: compound 100.0 µM; ATP 5 µM
MAPK8 (human) = MAPK8 (human) (UniProt P45983); conditions: compound 100.0 µM; ATP 20 µM
MAPKAPK3 (human) = MAPKAPK3 (human) (UniProt Q16644); conditions: compound 100.0 µM; ATP 20 µM
AURKA (human) = AURKA (human) (UniProt O14965); conditions: compound 100.0 µM; ATP 5 µM
MARK1 (human) = MARK1 (human) (UniProt Q9P0L2); conditions: compound 100.0 µM; ATP 20 µM
MINK1 (human) = MINK1 (human) (UniProt Q8N4C8); conditions: compound 100.0 µM; ATP 50 µM
TBK1 (human) = TBK1 (human) (UniProt Q9UHD2); conditions: compound 100.0 µM; ATP 50 µM
[2] = system: AKT2 (human), P31751 [S474D]; conditions: compound 100.0 µM; ATP 50 µM
CaMK1 (human) = CaMK1 (human) (UniProt Q14012); conditions: compound 100.0 µM; ATP 50 µM
PHKG1 (human) = PHKG1 (human) (UniProt Q16816); conditions: compound 100.0 µM; ATP 50 µM
EEF2K (human) = EEF2K (human) (UniProt O00418); conditions: compound 100.0 µM; ATP 5 µM
BRSK2 (human) = BRSK2 (human) (UniProt Q8IWQ3); conditions: compound 100.0 µM; ATP 50 µM
RPS6KA1 KD1 KD2 (human) = RPS6KA1 KD1 KD2 (human) (UniProt Q15418); conditions: compound 100.0 µM; ATP 50 µM
ERBB4 (human) = ERBB4 (human) (UniProt Q15303); conditions: compound 100.0 µM; ATP 5 µM
PIM3 (human) = PIM3 (human) (UniProt Q86V86); conditions: compound 100.0 µM; ATP 20 µM
MAPK13 (human) = MAPK13 (human) (UniProt O15264); conditions: compound 100.0 µM; ATP 5 µM

PHKG1 (human), sequence (Q16816 whole entry, looked up): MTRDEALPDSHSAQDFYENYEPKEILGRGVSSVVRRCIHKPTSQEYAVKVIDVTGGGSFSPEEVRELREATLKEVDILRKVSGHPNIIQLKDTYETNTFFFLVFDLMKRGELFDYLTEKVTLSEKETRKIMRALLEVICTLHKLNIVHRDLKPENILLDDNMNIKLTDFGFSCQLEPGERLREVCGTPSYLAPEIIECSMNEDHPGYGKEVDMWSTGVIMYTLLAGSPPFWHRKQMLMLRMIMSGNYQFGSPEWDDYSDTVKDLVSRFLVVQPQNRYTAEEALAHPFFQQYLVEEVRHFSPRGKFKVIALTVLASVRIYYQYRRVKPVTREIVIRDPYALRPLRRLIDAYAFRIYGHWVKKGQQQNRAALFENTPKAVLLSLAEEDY
MYLK (human), sequence (Q15746 whole entry, looked up): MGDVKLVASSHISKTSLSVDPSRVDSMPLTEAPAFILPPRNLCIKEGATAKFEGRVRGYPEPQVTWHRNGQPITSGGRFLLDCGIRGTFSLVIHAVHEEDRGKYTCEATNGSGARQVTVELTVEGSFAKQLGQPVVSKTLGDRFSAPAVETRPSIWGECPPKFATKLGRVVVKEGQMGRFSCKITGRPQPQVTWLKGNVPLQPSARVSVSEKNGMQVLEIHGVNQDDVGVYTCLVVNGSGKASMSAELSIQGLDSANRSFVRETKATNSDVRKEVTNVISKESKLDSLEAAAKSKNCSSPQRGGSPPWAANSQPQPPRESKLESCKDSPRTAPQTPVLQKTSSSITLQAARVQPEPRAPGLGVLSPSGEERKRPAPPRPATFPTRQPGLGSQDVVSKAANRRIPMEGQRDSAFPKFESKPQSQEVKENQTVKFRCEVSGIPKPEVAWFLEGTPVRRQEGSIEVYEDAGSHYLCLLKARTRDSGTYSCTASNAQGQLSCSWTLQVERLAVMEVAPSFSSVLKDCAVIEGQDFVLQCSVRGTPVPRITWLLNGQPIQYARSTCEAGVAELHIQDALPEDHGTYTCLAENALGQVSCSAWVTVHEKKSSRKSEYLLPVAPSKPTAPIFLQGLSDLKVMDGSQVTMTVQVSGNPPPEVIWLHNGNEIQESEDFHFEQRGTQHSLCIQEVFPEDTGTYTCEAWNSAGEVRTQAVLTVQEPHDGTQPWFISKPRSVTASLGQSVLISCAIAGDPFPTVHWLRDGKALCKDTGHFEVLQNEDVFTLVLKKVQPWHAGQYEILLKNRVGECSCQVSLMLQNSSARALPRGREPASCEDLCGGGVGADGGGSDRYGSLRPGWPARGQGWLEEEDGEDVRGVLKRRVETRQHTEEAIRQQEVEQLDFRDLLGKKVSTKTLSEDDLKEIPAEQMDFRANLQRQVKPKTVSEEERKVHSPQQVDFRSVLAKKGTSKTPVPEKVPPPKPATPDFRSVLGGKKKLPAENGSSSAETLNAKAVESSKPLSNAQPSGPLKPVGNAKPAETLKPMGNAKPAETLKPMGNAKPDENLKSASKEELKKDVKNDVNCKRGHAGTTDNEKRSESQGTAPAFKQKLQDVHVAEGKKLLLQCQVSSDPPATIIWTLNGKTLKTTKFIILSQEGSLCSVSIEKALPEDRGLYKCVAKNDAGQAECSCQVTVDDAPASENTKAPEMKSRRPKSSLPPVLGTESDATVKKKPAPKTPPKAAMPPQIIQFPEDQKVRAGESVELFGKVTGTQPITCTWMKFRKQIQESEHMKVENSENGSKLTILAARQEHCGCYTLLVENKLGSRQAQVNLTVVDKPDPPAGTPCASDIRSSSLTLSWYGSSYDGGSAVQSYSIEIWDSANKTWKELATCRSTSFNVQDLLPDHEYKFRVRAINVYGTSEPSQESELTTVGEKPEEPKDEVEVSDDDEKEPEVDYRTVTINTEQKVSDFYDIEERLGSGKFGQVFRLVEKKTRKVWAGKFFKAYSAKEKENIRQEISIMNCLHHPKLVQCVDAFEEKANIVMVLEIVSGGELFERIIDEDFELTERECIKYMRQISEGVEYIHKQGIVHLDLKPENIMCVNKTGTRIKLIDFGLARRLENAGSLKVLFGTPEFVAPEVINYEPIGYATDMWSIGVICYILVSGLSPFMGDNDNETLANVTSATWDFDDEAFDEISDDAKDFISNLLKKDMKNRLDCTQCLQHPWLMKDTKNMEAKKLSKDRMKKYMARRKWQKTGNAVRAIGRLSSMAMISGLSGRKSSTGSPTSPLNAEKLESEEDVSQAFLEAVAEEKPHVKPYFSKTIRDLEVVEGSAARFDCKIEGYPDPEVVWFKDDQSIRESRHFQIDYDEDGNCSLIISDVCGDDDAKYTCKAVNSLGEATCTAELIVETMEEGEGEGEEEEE
EPHA4 (human), sequence (P54764 whole entry, looked up): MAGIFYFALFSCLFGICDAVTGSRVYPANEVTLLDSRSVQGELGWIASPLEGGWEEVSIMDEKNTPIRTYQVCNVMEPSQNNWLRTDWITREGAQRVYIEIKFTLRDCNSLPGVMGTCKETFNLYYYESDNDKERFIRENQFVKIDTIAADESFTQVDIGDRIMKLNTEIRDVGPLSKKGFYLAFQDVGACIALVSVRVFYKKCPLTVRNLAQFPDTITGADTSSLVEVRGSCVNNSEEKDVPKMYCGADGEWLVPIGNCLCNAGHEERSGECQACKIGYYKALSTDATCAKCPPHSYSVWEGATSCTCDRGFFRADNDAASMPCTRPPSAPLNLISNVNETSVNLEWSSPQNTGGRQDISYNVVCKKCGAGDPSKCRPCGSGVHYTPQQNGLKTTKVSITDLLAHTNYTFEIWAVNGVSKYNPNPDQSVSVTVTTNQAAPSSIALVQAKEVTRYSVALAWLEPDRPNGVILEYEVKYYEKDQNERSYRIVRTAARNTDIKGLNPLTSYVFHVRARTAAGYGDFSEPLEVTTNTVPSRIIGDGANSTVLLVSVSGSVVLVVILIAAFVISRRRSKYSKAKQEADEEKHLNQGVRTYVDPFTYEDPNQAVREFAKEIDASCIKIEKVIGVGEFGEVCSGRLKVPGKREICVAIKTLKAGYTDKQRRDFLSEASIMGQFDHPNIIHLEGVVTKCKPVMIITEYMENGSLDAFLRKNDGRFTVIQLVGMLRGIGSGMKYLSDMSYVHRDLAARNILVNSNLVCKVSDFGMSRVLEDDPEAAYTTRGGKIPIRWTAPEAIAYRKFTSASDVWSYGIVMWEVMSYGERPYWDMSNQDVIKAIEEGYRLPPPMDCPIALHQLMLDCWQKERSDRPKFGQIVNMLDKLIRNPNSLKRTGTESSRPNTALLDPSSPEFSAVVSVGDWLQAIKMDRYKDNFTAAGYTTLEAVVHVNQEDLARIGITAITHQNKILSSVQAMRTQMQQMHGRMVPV
CaMK1 (human), sequence (Q14012 whole entry, looked up): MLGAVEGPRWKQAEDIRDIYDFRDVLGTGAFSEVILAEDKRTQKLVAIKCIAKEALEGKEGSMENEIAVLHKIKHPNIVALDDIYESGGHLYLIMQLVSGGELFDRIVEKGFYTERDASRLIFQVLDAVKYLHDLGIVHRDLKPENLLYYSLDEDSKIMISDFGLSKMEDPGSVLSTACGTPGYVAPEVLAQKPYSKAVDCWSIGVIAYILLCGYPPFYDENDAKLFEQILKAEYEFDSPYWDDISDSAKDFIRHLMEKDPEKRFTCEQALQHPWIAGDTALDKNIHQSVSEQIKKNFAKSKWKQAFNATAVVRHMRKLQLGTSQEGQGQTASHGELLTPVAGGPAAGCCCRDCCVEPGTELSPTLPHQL
PIM2 (human), sequence (Q9P1W9 whole entry, looked up): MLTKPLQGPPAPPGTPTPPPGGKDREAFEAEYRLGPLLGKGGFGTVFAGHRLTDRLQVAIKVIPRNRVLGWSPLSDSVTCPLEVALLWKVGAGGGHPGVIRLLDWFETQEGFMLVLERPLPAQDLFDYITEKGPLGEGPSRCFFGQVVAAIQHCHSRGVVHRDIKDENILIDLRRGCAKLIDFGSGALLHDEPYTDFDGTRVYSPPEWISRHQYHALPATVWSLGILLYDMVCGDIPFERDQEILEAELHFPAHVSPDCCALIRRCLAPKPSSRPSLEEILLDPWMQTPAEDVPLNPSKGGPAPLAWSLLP
ABL1 (human), sequence (P00519 whole entry, looked up): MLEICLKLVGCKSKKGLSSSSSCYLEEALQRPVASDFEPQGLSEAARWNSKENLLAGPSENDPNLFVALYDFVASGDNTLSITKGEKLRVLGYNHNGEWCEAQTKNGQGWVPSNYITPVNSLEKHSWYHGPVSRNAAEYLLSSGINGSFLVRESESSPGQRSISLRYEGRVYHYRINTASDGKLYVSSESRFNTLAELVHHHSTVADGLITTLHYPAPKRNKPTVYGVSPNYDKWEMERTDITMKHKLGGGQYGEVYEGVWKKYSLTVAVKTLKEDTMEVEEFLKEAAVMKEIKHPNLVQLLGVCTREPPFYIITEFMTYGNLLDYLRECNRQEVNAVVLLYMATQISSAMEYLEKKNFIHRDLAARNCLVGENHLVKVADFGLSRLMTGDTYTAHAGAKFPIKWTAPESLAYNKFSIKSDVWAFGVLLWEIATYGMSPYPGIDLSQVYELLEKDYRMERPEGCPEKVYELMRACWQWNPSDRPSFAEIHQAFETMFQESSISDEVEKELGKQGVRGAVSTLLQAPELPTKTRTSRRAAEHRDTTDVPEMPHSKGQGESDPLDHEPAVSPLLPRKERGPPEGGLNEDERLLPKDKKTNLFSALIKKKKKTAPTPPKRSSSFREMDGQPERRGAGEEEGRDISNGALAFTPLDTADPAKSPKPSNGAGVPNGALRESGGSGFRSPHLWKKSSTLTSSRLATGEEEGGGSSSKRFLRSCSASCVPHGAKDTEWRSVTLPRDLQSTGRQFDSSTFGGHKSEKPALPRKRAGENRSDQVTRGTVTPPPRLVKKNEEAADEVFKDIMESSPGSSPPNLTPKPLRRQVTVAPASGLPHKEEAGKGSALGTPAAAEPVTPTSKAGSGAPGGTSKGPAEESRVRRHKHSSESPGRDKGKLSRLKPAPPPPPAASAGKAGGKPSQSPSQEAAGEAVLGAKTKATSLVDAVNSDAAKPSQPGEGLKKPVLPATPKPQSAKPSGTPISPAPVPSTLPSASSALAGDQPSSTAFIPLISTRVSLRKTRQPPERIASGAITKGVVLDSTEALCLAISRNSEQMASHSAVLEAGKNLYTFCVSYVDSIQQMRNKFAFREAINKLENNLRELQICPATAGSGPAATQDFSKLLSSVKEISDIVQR

Compound | inhibition (DYRK3 (human)) [%] | inhibition (NEK6 (human)) [%] | inhibition (TEK (human)) [%] | inhibition (PIM2 (human)) [%] | inhibition (MKNK2 (human)) [%] | inhibition (EPHA4 (human)) [%] | inhibition (CDK2 CCNA2 (human)) [%] | inhibition (STK33 (human)) [%] | inhibition (PTK6 (human)) [%] | inhibition (STK16 (human)) [%] | inhibition (PRKCA (human)) [%] | inhibition (NEK2 (human)) [%] | inhibition (CSNK2A1 (human)) [%] | inhibition (MYLK (human)) [%] | inhibition (MAP3K11 (human)) [%] | inhibition (ABL1 (human)) [%] | inhibition (MAPKAPK2 (human)) [%] | inhibition (ROCK2 (rat)) [%] | inhibition [1] [%] | inhibition (MST4 (human)) [%] | also measured
O=C(Nc1cnc2[nH]ccn2c1=O)c1ccccc1 | 18 | 15 | 0 | 9 | 25 | 16 | 0 | 21 | 30 | 21 | 2 | 6 | 11 | 36 | 40 | 4 | 29 | 11 | 4 | 7 | inhibition (PIM1 (human)): 0%; inhibition (FLT1 (human)): 31%; inhibition (MELK (human)): 2%; inhibition (PAK6 (human)): 6%; inhibition (EPHB4 (human)): 5%; inhibition (MAPK8 (human)): 0%; inhibition (MAPKAPK3 (human)): 33%; inhibition (AURKA (human)): 6%; inhibition (MARK1 (human)): 16%; inhibition (MINK1 (human)): 25%; inhibition (TBK1 (human)): 14%; inhibition [2]: 14%; inhibition (CaMK1 (human)): 11%; inhibition (PHKG1 (human)): 44%; inhibition (EEF2K (human)): 11%; inhibition (BRSK2 (human)): 27%; inhibition (RPS6KA1 KD1 KD2 (human)): 23%; inhibition (ERBB4 (human)): 25%; inhibition (PIM3 (human)): 0%; inhibition (MAPK13 (human)): 0%
O=c1cc(-c2ccccc2F)nc2[nH]ccn12 | 30 | 7 | 0 | 17 | 26 | 16 | 21 | 12 | 30 | 15 | 2 | 29 | 20 | 13 | 7 | 3 | 22 | 29 | 8 | 13 | inhibition (PIM1 (human)): 67%; inhibition (FLT1 (human)): 39%; inhibition (MELK (human)): 1%; inhibition (PAK6 (human)): 3%; inhibition (EPHB4 (human)): 6%; inhibition (MAPK8 (human)): 0%; inhibition (MAPKAPK3 (human)): 15%; inhibition (AURKA (human)): 17%; inhibition (MARK1 (human)): 5%; inhibition (MINK1 (human)): 28%; inhibition (TBK1 (human)): 6%; inhibition [2]: 16%; inhibition (CaMK1 (human)): 9%; inhibition (PHKG1 (human)): 8%; inhibition (EEF2K (human)): 7%; inhibition (BRSK2 (human)): 24%; inhibition (RPS6KA1 KD1 KD2 (human)): 16%; inhibition (ERBB4 (human)): 48%; inhibition (PIM3 (human)): 83%; inhibition (MAPK13 (human)): 0%
COc1ccc(-c2cc3c(=O)[nH]cnc3s2)cc1OC | 36 | 60 | 0 | 25 | 21 | 12 | 0 | 0 | 16 | 12 | 18 | 0 | 31 | 0 | 8 | 34 | 8 | 19 | 30 | 16 | inhibition (PIM1 (human)): 38%; inhibition (FLT1 (human)): 39%; inhibition (MELK (human)): 22%; inhibition (PAK6 (human)): 0%; inhibition (EPHB4 (human)): 0%; inhibition (MAPK8 (human)): 8%; inhibition (MAPKAPK3 (human)): 56%; inhibition (AURKA (human)): 1%; inhibition (MARK1 (human)): 27%; inhibition (MINK1 (human)): 60%; inhibition (TBK1 (human)): 3%; inhibition [2]: 47%; inhibition (CaMK1 (human)): 66%; inhibition (PHKG1 (human)): 13%; inhibition (EEF2K (human)): 2%; inhibition (BRSK2 (human)): 9%; inhibition (RPS6KA1 KD1 KD2 (human)): 59%; inhibition (ERBB4 (human)): 17%; inhibition (PIM3 (human)): 61%; inhibition (MAPK13 (human)): 0%
